# Reference: PubChem BioAssay (NCI)
#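 Following 48 hours of exposure in 96-well plates, responses at five concentrations were used to interpolate endpoints linearly. GI50 is the concentration that inhibits growth by half. At the TGI there is no net growth.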 Where a SMILES comes first, the peptide text is derived from it. [ ]: non-standard residue; d: D form. The star is where a group is joined. ξ: configuration not given here. ξF = NC(Cc1ccccc1)C(=O)O; Cbz = O=C(OCc1ccccc1)*; Aib = CC(C)(N)C(=O)O
# Key:
# Experiment in all cases: NCI tumour cell line growth inhibition, 48 h
# [1] = test system: SR leukemia
# [2] = test system: HCC-2998 colon
# [3] = test system: HT29 colon
# [4] = test system: SK-MEL-5 melanoma
# [5] = test system: U251 CNS
# [6] = test system: HOP-62 NSCLC
# [7] = test system: MDA-MB-231 breast
# [8] = test system: A549 NSCLC
# [9] = test system: BT-549 breast
# [10] = test system: NCI-H522 lung
Structure (SMILES),TGI [1] [µM],TGI [2] [µM],TGI [3] [µM],TGI [4] [µM],TGI [5] [µM],TGI [6] [µM],TGI [7] [µM],TGI [8] [µM],GI50 [9] [µM],TGI [9] [µM],GI50 [2] [µM],GI50 [3] [µM],GI50 [4] [µM],GI50 [5] [µM],GI50 [8] [µM],TGI [10] [µM]
CC(=O)c1ccc(N=Nc2ccc3nonc3c2N)cc1,> 100,> 100,> 100,> 100,> 100,> 100,> 100,> 100,–,–,–,–,–,–,–,–
O=C(CSc1nc2ccccc2[nH]1)Nc1ccc(-c2nc3ccccc3s2)c(Cl)c1,–,9.4,> 100,> 100,4.33,–,–,> 100,7.69,> 100,2.77,4.79,3.12,1.85,3.25,–
CSc1c(C(=O)Nc2ccccc2)c(N)nn1-c1ccccc1,> 100,> 100,> 100,> 100,> 100,–,> 100,> 100,–,> 100,–,–,–,–,–,–
Cc1ccc(S(=O)(=O)N/C(=C\C=C\c2ccccc2)C(=O)C(C)(C)C)cc1,> 100,> 100,> 100,> 100,> 100,44,> 100,> 100,–,–,–,–,–,–,–,> 100
Cc1ccc(F)cc1NC(=O)O/N=C(\Cl)C(C)C,–,34.4,37,24.1,> 56.4,37.2,32.8,38.2,–,–,–,–,–,–,–,2.13
CCOC(=O)/C(O)=C1\C(=O)N(C)C(=O)C1c1ccc(OC)c(OC)c1 (stereo unspecified),–,> 100,> 100,> 100,> 100,> 100,–,> 100,–,–,–,–,–,–,–,> 100
COc1ccc2[nH]c3c(c2c1)CCN(C)CC3,–,> 100,> 100,> 100,> 100,> 100,–,> 100,–,–,–,–,–,–,–,–
COc1ccc2c(c1)O[C@@H]1C(O)Oc3cc(OC)c(OC)cc3[C@]1(O)C2=O (stereo partly specified),–,–,> 100,72.4,> 100,> 100,> 100,> 100,–,91,–,–,–,–,–,36.5
CN(C)C(=S)N/N=C\C=N/NC(=S)N(C)C,–,> 100,> 100,> 100,> 100,–,> 100,> 100,–,> 100,–,–,–,–,–,> 85.3
CC(C)(C)OC(=O)n1cc(C2CNC(=O)C23CCC(=O)N3Cc2ccccc2)c2ccccc21 (stereo unspecified),> 100,–,37.3,31.9,37.3,57.2,39.9,40.4,–,–,–,–,–,–,–,35
O=C(NCCN(CCNC(=O)c1cccc(=O)n1O)CCN(CCNC(=O)c1cccc(=O)n1O)CCNC(=O)c1cccc(=O)n1O)c1cccc(=O)n1O,–,> 100,> 100,> 100,> 100,> 100,> 100,> 100,–,> 100,–,–,–,–,–,> 100
CC(=O)NCCCCNCCCNC(C)=O,–,> 100,> 100,> 100,> 100,–,> 100,> 100,–,> 100,–,–,–,–,–,> 100
CN(C)c1ccc(/C=N/Nc2nc3ccccc3c(=O)n2-c2ccccc2)cc1,> 100,> 100,> 100,> 100,> 100,97.8,> 100,> 100,–,–,–,–,–,–,–,> 100
C=CC(=O)N1C/C(=C\c2ccc(N(C)C)cc2)C(=O)/C(=C/c2ccc(N(C)C)cc2)C1,–,> 100,> 100,> 100,> 100,> 100,> 100,> 100,–,> 100,–,–,–,–,–,–
N#CC1=C2Sc3ccccc3N2[C@H](c2ccccc2)[C@H]2COC(=O)[C@@H]12,–,> 100,–,> 100,> 100,> 100,> 100,> 100,–,70.6,–,–,–,–,–,27
CCCCCc1cc(OC(=O)c2c(O)cc(OC)cc2CCCCC)cc(O)c1C(=O)O,–,29,29.9,28.5,29.1,30.7,–,35.6,–,–,–,–,–,–,–,28.2
CC(C)(NC(=O)OCc1ccccc1)C(=O)NC(Cc1ccccc1)C(=O)O (stereo unspecified) (Cbz-[Aib]-[ξF]-OH),–,–,> 100,> 100,> 100,> 100,> 100,> 100,–,> 100,–,–,–,–,–,> 100
O=C1C(Br)=CC2([N+](=O)[O-])CCNc3c(O)c4c5c(c3C2=C1Br)=NCCC=5C=N4 (stereo unspecified),–,13.2,7.24,1.33,3.96,11,–,16.3,–,–,–,–,–,–,–,0.214
